Like-named read-outs stand apart in the source and are kept apart here.
Key:
[1] = target: human full-length glucocorticoid receptor (Homo sapiens (Human), UniProt P04150); assay: Glucocorticoid Receptor Binding Assay (II), fluorescence polarization competitor kit
Method: In order to measure the binding of compounds on the glucocorticoid receptor a commercially available kit was used (Glucocorticoid receptor competitor assay kit, PanVera Co., Madison, Wis., P2816). Briefly, a cell lysate containing recombinantly expressed human full-length glucocorticoid receptor was mixed with a fluorescently labeled glucocorticoid (1 nM Fluormone GS1) in the presence or absence of test compound. After one hour at room temperature, the fluorescence polarization (FP) of the samples were measured.

[2] = test system: AP-1 induced transcriptional activity; assay: Cellular transrepressional assay (AP-1 luciferase reporter, PMA-activated A549 cell); type: cell-based; conditions: for EC50: read-out: AP-1 (EC50, nM) (measured in cellular transrepression assay)
Method: To measure the ability of test molecules to inhibit AP-1 induced transcriptional activity we utilized an A549 cell which was stably transfected with a plasmid containing 7×AP-1 DNA binding sites (pAP-1-Luc plasmid, Stratagene Co., La Jolla, Calif.) followed by the gene for luciferase. Cells were activated with 10 ng/ml of phorbol myristic acid (PMA) plus or minus test molecules for 7 hours. After 7 hours a luciferase reagent was added to measure luciferase enzymatic activity in the cell. After a 10 minute incubation of luciferase reagent with cells, luminescence was measured in a TOPCOUNT® luminescence counter. Repression of AP-1 activity was calculated as the percentage decrease in the signal induced by PMA alone. Test molecules were analyzed in the concentration range from 0.1 nM to 40 μM. EC50s were determined by using standard curve fitting methods such as Excel fit (Microsoft Co.). An EC50 is the test molecule concentration at which there is a 50% repression of the maximal inhibition of transcription, i.e., a 50% reduction of AP-1 activity.

[3] = read-out: GR (Ki, nM) (measured in GR binding Assay II)
[4] = A549 cell, 10 ng/ml PMA, 7 hours
[5] = Homo sapiens, A549 cell, 10 ng/ml PMA, 7 hours

Chain of human full-length glucocorticoid receptor (P04150 whole entry): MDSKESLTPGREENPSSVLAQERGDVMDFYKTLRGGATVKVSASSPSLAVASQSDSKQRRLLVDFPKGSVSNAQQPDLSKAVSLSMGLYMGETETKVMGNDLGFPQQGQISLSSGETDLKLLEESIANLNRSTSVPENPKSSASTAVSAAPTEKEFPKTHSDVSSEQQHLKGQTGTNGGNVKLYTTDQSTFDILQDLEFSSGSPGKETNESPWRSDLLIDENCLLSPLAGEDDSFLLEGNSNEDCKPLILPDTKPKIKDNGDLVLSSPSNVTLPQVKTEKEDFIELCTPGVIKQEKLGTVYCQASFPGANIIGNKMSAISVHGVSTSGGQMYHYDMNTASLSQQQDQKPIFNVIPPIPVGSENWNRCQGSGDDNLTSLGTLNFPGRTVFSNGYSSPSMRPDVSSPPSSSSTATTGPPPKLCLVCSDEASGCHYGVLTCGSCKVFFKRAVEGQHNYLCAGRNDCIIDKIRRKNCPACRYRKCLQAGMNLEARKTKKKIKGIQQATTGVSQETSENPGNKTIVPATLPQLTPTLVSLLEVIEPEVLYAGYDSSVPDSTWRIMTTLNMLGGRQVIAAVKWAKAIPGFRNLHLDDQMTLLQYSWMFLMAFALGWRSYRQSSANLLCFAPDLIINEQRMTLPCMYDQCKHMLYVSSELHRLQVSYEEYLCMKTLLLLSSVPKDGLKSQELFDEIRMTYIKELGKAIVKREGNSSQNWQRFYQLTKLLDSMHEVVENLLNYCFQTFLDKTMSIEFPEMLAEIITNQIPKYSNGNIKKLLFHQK

SMILES	Ki [1, 3] [nM]	Ki [1] [nM]	EC50 [2, 5] [nM]	AP-1 Max % inhibition (measured in cellular transrepression assay) [2, 4] [%]	EC50 [2, 4] [nM]	AP-1 Max % inhibition (measured in cellular transrepression assay) [2] [%]	EC50 [2] [nM]
CC(C)(C(=O)NC(N)=O)[C@H]1c2ccccc2Oc2nc(-c3ccc(C(=O)N4CCCC4)c(Cl)c3)ccc21 [Example 52]	123	–	–	57.02	815	–	–
Cc1nnn(-c2ccc(-c3ccc4c(n3)Oc3ccccc3[C@@H]4C(C)(C)C(=O)NC(N)=O)cc2)n1 [Example 67]	1.51	–	–	53.28	4.98	–	–
CC(C)Oc1ccc(-c2ccc3c(n2)Oc2c(F)cccc2[C@@H]3C(C)(C)C(=O)NC(N)=O)cn1 [Example 68]	–	0.63	8.57	61.39	–	–	–
CNC(=O)NC(=O)C(C)(C)[C@@H]1c2ccc(-c3ccc(OC(C)C)nc3)nc2Oc2c(F)cccc21 [Example 17]	9.68	–	–	37.10	2500	–	–
CC(=O)Nc1ccc(-c2ccc3c(n2)Oc2c(F)cccc2[C@@H]3C(C)(C)C(=O)NC(N)=O)cn1 [Example 61]	4.26	–	–	39.15	31.1	–	–
CC(C)(C(=O)NC(N)=O)[C@@H]1c2ccc(-c3ccc(NC4CC4)nc3)nc2Oc2c(F)cccc21 [Example 62]	1.15	–	–	64.75	8.24	–	–
CC(C)(C(=O)NC(N)=O)[C@@H]1c2ccc(-c3ccc(-n4cnnn4)cc3)nc2Oc2c(F)cccc21 [Example 45]	0.82	–	–	55.41	7.77	–	–
CC(C)(C(=O)NC(N)=O)[C@H]1c2ccccc2Oc2nc(-c3ccc(C(=O)N4CCCC4)nc3)ccc21 [Example 54]	7.65	–	–	55.36	67.2	–	–
CCCCc1ccc(-c2ccc3c(n2)Oc2c(F)cccc2[C@@H]3C(C)(C)C(=O)NC(N)=O)cc1 [Example 43]	0.91	–	–	67.14	5.39	–	–
CC(C)(C(=O)NC(N)=O)[C@@H]1c2ccc(-c3ccc(C(=O)N4CCCC4)cc3)nc2Oc2c(F)cccc21 [Example 30]	0.72	–	–	63.94	1.59	–	–
CC(C)Oc1ccc(-c2ccc3c(n2)Oc2c(F)cccc2[C@@H]3C(C)(C)C(=O)NC(N)=O)cc1F [Example 35]	0.4	–	–	54.04	7.5	–	–
CCS(=O)(=O)c1ccc(-c2ccc3c(n2)Oc2c(F)cccc2[C@@H]3C(C)(C)C(=O)NC(=O)NC)cc1 [Example 12]	5.04	–	–	36.42	85.7	–	–
CC(C)Nc1ccc(-c2ccc3c(n2)Oc2c(F)cccc2[C@@H]3C(C)(C)C(=O)NC(N)=O)cn1 [Example 60]	1.13	–	–	–	–	66.44	2.9
CC(C)(C(=O)NC(N)=O)[C@@H]1c2ccc(-c3ccc(C(=O)O)nc3)nc2Oc2c(F)cccc21 [Example 63]	10.8	–	–	39.61	142	–	–
CCS(=O)(=O)c1ccc(-c2ccc3c(n2)Oc2ccccc2[C@@H]3C(C)(C)C(=O)NC(N)=O)cc1 [Example 39]	0.93	–	–	58.23	13	–	–
CC(C)(C(=O)NC(N)=O)[C@H]1c2ccccc2Oc2nc(-c3ccc(C(=O)N4CCCC4)cc3)ccc21 [Example 40]	1.93	–	–	68.22	8.69	–	–
CCS(=O)(=O)c1ccc(-c2ccc3c(n2)Oc2c(F)cccc2[C@@H]3C(C)(C)C(=O)NC(N)=O)cc1 [Example 31]	0.43	–	–	56.84	5.55	–	–
CC(C)(O)CNC(=O)NC(=O)C(C)(C)[C@@H]1c2ccc(-c3ccc(C(=O)N4CCOCC4)cc3)nc2Oc2c(F)cccc21 [Example 78]	–	–	340	46.32	–	–	–
CC(C)(O)CNC(=O)NC(=O)C(C)(C)[C@@H]1c2ccc(-c3ccc(C(C)(C)O)cc3)nc2Oc2c(F)cccc21 [Example 79]	–	–	789	36.12	–	–	–
CC(C)(C(=O)NC(N)=O)[C@@H]1c2ccc(-c3ccc(C(=O)N4CCC4)cc3)nc2Oc2c(F)cccc21 [Example 84]	–	–	4.22	67.75	–	–	–

More lines, main results first:

Ki [1, 3] [nM]	Ki [1] [nM]	EC50 [2, 5] [nM]	SMILES	AP-1 Max % inhibition (measured in cellular transrepression assay) [2, 4] [%]	EC50 [2, 4] [nM]	AP-1 Max % inhibition (measured in cellular transrepression assay) [2] [%]	EC50 [2] [nM]
0.25	–	–	CC(C)Oc1ccc(-c2ccc3c(n2)Oc2c(F)cccc2[C@@H]3C(C)(C)C(=O)NC(N)=O)cc1 [Example 34]	68.62	1.24	–	–
1.09	–	–	CC(C)(C(=O)NC(N)=O)[C@H]1c2ccccc2Oc2nc(-c3ccc(C(=O)N4CCC(F)(F)C4)c(F)c3)ccc21 [Example 49]	67.00	13.3	–	–
1.76	–	–	CC(C)(C(=O)NC(N)=O)[C@H]1c2ccccc2Oc2nc(-c3ccc(C(=O)N4CCC(F)(F)C4)cc3)ccc21 [Example 50]	69.26	15.3	–	–
10.9	–	5000	CNC(=O)NC(=O)C(C)(C)[C@@H]1c2ccc(-c3ccc(N4CCOCC4)nc3)nc2Oc2c(F)cccc21 [Example 27]	16.38	–	–	–
0.5	–	–	CC(C)Oc1ccc(-c2ccc3c(n2)Oc2ccccc2[C@@H]3C(C)(C)C(=O)NC(N)=O)cn1 [Example 65]	54.73	4.89	–	–
1.11	–	5.89	CC(C)(C(=O)NC(N)=O)[C@@H]1c2ccc(-c3ccc(C(=O)N4CCCCC4)cc3)nc2Oc2c(F)cccc21 [Example 83]	86.42	–	–	–
369	–	–	CC(C)(C(=O)NC(N)=O)[C@H]1c2ccccc2Oc2nc(-c3ccc(C(=O)N4CCC(F)(F)C4)c(Cl)c3)ccc21 [Example 53]	28.67	2500	–	–
25.9	–	93.6	CN1CCN(c2ncc(-c3ccc4c(n3)Oc3c(F)cccc3[C@@H]4C(C)(C)C(=O)NC(N)=O)cn2)CC1 [Example 71]	39.16	–	–	–
1.19	–	8.94	CC(C)(O)c1ccc(-c2ccc3c(n2)Oc2ccccc2[C@@H]3C(C)(C)C(=O)NC(N)=O)cc1 [Example 70]	79.50	–	–	–
42.7	–	5000	CCC(=O)NC(=O)C(C)(C)[C@@H]1c2ccc(Cl)nc2Oc2c(F)cccc21 [Example 1]	17.32	–	–	–
1.74	–	–	CCC(C)c1ccc(-c2ccc3c(n2)Oc2ccccc2[C@@H]3C(C)(C)C(=O)NC(N)=O)cc1 (some centres unmarked) [Example 38]	56.33	14.1	–	–
3.55	–	–	CC(C)S(=O)(=O)c1ccc(-c2ccc3c(n2)Oc2c(F)cccc2[C@@H]3C(C)(C)C(=O)NC(N)=O)cc1 [Example 32]	59.56	4.89	–	–
–	–	786	CC(C)(C(=O)NC(=O)NCCO)[C@@H]1c2ccc(-c3ccc(C(=O)N4CCOCC4)cc3)nc2Oc2c(F)cccc21 [Example 77]	55.34	–	–	–

From US9593113B2, “Imide and acylurea derivatives as modulators of the glucocorticoid receptor” (BRISTOL-MYERS SQUIBB COMPANY, priority 2013, dated 2017)
